# From ChEMBL document CHEMBL3044799, “Biological activity of the succinate dehydrogenase inhibitor fluopyram against Botrytis cinerea and fungal baseline sensitivity” (Pest Manag Sci, 2012)
# Calls of active or inactive are those of the source. The calls are words filed in the database; no cut-off is given here.
# Tests used:
# [1] = system: Botrytis cinerea; assay: Protective antifungal activity against Botryotinia fuckeliana inoculated in fungicide-applied strawberry fruit assessed as disease control efficacy at 100 ug AI/ml applied 96 hr prior-inoculation relative to control; type: functional
# [2] = system: Botrytis cinerea; assay: Protective antifungal activity against Botryotinia fuckeliana inoculated in fungicide-applied strawberry fruit assessed as disease control efficacy at 1 ug AI/ml applied 96 hr prior-inoculation relative to control; type: functional
# [3] = system: Botrytis cinerea; assay: Curative antifungal activity against Botryotinia fuckeliana inoculated in strawberry fruit assessed as disease control efficacy at 100 ug AI/ml applied 24 hr post-inoculation relative to control; type: functional
# [4] = system: Botrytis cinerea; assay: Protective antifungal activity against Botryotinia fuckeliana inoculated in fungicide-applied strawberry fruit assessed as disease control efficacy at 50 ug AI/ml applied 96 hr prior-inoculation relative to control; type: functional
# [5] = system: Botrytis cinerea; assay: Protective antifungal activity against Botryotinia fuckeliana inoculated in fungicide-applied strawberry fruit assessed as disease control efficacy at 1 ug AI/ml applied 48 hr prior inoculation relative to control; type: functional
# [6] = system: Botrytis cinerea; assay: Curative antifungal activity against Botryotinia fuckeliana inoculated in strawberry fruit assessed as disease severity measuring lesion diameter at 10 ug AI/ml applied 48 hr post-inoculation; type: functional
# [7] = system: Botrytis cinerea; assay: Antifungal activity against Botryotinia fuckeliana grown on succinate medium assessed as inhibition of mycelial growth at 10 ug/ml after 10 days; type: functional, organism-based
# [8] = system: Botrytis cinerea; assay: Protective antifungal activity against Botryotinia fuckeliana inoculated in fungicide-applied strawberry fruit assessed as disease control efficacy at 10 ug AI/ml applied 24 hr prior inoculation relative to control; type: functional
# [9] = system: Botrytis cinerea; assay: Antifungal activity against Botryotinia fuckeliana obtained from cucumber isolate assessed as inhibition of spore germ tube growth; type: functional, organism-based
# [10] = system: Botrytis cinerea; assay: Curative antifungal activity against Botryotinia fuckeliana inoculated in strawberry fruit assessed as disease severity measuring lesion diameter at 1 ug AI/ml applied 96 hr post-inoculation; type: functional
# [11] = system: Botrytis cinerea; assay: Protective antifungal activity against Botryotinia fuckeliana inoculated in fungicide-applied strawberry fruit assessed as disease severity measuring lesion diameter at 1 ug AI/ml applied 96 hr prior-inoculation; type: functional
# [12] = system: Botrytis cinerea; assay: Protective antifungal activity against Botryotinia fuckeliana inoculated in fungicide-applied strawberry fruit assessed as disease control efficacy at 50 ug AI/ml applied 24 hr prior inoculation relative to control; type: functional
# [13] = system: Botrytis cinerea; assay: Protective antifungal activity against Botryotinia fuckeliana inoculated in fungicide-applied strawberry fruit assessed as disease severity measuring lesion diameter at 50 ug AI/ml applied 48 hr prior inoculation; type: functional
# [14] = system: Botrytis cinerea; assay: Antifungal activity against Botryotinia fuckeliana grown on YBA agar assessed as inhibition of germ tube growth at 1 ug/ml after 10 days; type: functional, organism-based
# [15] = system: Botrytis cinerea; assay: Antifungal activity against Botryotinia fuckeliana grown on water agar assessed as inhibition of germ tube growth at 1 ug/ml after 10 days; type: functional, organism-based
# [16] = system: Botrytis cinerea; assay: Antifungal activity against Botryotinia fuckeliana grown on YBA agar assessed as inhibition of mycelial growth at 5 ug/ml after 10 days; type: functional, organism-based
# [17] = system: Botrytis cinerea; assay: Curative antifungal activity against Botryotinia fuckeliana inoculated in strawberry fruit assessed as disease severity measuring lesion diameter at 10 ug AI/ml applied 24 hr post-inoculation; type: functional
# [18] = system: Botrytis cinerea; assay: Curative antifungal activity against Botryotinia fuckeliana inoculated in strawberry fruit assessed as disease severity measuring lesion diameter at 100 ug AI/ml applied 24 hr post-inoculation; type: functional
# [19] = system: Botrytis cinerea; assay: Curative antifungal activity against Botryotinia fuckeliana inoculated in strawberry fruit assessed as disease severity measuring lesion diameter at 50 ug AI/ml applied 96 hr post-inoculation; type: functional
# [20] = system: Botrytis cinerea; assay: Curative antifungal activity against Botryotinia fuckeliana inoculated in strawberry fruit assessed as disease control efficacy at 10 ug AI/ml applied 48 hr post-inoculation relative to control; type: functional
# [21] = system: Botrytis cinerea; assay: Curative antifungal activity against Botryotinia fuckeliana inoculated in strawberry fruit assessed as disease severity measuring lesion diameter at 50 ug AI/ml applied 48 hr post-inoculation; type: functional
# [22] = system: Botrytis cinerea; assay: Protective antifungal activity against Botryotinia fuckeliana inoculated in fungicide-applied strawberry fruit assessed as disease severity measuring lesion diameter at 10 ug AI/ml applied 48 hr prior inoculation; type: functional
# [23] = system: Botrytis cinerea; assay: Antifungal activity against Botryotinia fuckeliana obtained from tomato isolate assessed as inhibition of spore germ tube growth; type: functional, organism-based
# [24] = system: Botrytis cinerea; assay: Curative antifungal activity against Botryotinia fuckeliana inoculated in strawberry fruit assessed as disease severity measuring lesion diameter at 1 ug AI/ml applied 48 hr post-inoculation; type: functional
compound,measurement,setting,value
O=C(NCCc1ncc(C(F)(F)F)cc1Cl)c1ccccc1C(F)(F)F [FLUOPYRAM],Efficacy,[1],93.9%
same,Efficacy,[2],53.6%
same,Efficacy,[3],79.3%
same,Efficacy,[4],79.2%
same,Efficacy,[5],54.3%
same,Activity,[6],3.5 mm
same,growth inhibition (GI),[7],inactive
same,Efficacy,[8],77.2%
same,EC50,[9],0.1 µg/mL
same,Activity,[10],11.8 mm
same,Activity,[11],8.7 mm
same,Efficacy,[12],93.9%
same,Activity,[13],2.3 mm
same,growth inhibition (GI),[14],Active
same,growth inhibition (GI),[15],Active
same,growth inhibition (GI),[16],Active
same,Activity,[17],5.7 mm
same,Activity,[18],3.9 mm
same,Activity,[19],10.3 mm
same,Efficacy,[20],81.2%
same,Activity,[21],3.2 mm
same,Activity,[22],5.5 mm
same,EC50,[23],0.11 µg/mL
same,Activity,[24],6.9 mm
